Data published in US12448388B2, “PRMT5 inhibitors and uses thereof” (Gilead Sciences, Inc., priority 2023, dated 2025).
Where two headings read alike, the source gives them in different places.

Assays:
[1] = system: Symmetric Di-methyl Arginine (SDMA) signal (PRMT5 inhibition) in HCT116 MTAP-deleted cells; assay: Symmetric di-methyl arginine image-based high content screen assay (SDMA assay), HCT116 MTAP-deleted; format: cell-based; conditions: for EC50: Homo sapiens, HCT-116, HCT116 MTAP-deleted, class symbols
Method: Symmetric di-methyl arginine image-based high content screen assay (SDMA assay) was performed in HCT116 WT and HCT116 MTAP-deleted cell lines to measure Symmetric Di-methyl Arginine (SDMA) signal reduction after selective PRMT5 inhibition in the MTAP-deleted cells. Control compounds were analyzed in parallel each time for quality control.
Briefly, the same compound plates were generated as mentioned in the previous section of Cell viability assay on Day −1. On Day 0, 800 HCT WT or HCT116 MTAP-deleted cell were seeded in compound-containing 384 well plates (50 μl per well) in RPMI 1640 media supplemented with 10% heat inactivated fetal bovine serum, Glutamax and penicillin streptomycin using EL460 liquid dispenser 5 μl cassette (BioTek, part no. 7170011). After equilibrating the plate at room temperature, the cells were incubated for 3 days inside the sealed incubator set at 37° C. with 90% humidity and 5% C02.
On Day 3, the cells were fixed by adding 45 μl of 8% neutralized formalin solution to each well using EL460 liquid dispenser 5 μl cassette and the cells were incubated for 30 minutes at room temperature. The formalin solution was washed off with […] phosphate buffered saline (dPBS), the 0.1% Triton X-100 solution in dPBS was used to permeabilize the cells for 15 minutes at room temperature. The triton solution was aspirated, 50 μl of Odyssey Blocking buffer +0.05% Tween20 was added and the plate was incubated at room temperature for 30 minutes.
The blocking solution was removed, a 20 μl of SDMA antibody (Cell Signaling Technology, Cat no. 13222) diluted 1:500 in Odyssey Blocking buffer +0.05% Tween20 was added and the plate was incubated at 4° C. overnight. Next day, the primary SDME antibody solution was washed from each well three times with 0.05% Tween20 in dPBS (PBST).
A 30 μl of the secondary antibody, a Goat anti-Rabbit Alexa Fluor Plus 488 (Invitrogen, Cat no. PIA32731) was diluted 1:500 in Odyssey Blocking buffer +0.05% Tween20 and the plate was incubated for 1.5 hours in dark at room temperature. The secondary antibody solution was removed, 30 μl of 5 mg/ml DAPI solution diluted 1:2000 in dPBS was added and the plate was incubated for 30 minutes in dark at room temperature. The DAPI solution was aspirated and the wells were washed six times with dPBS.
The SDMA signal and DAPI signal per cell were counted using a Cellomics CX7 LZR instrument reading under 488 and 405 nm laser, respectively. The SDMA signal was quantified by mean average intensity per cell from Alexa Fluor Plus 488 after the cell was defined with DAPI. The EC50 values for each compound after 3 days of treatment were calculated using 4 parameter non-linear logistical curve fit.
For the SDMA assay i.e. EC50 shown in Table 3A: A: EC50≤1 nM, B: 1 nM<EC50≤5 nM, C: EC50>5 nM.

[2] = system: HCT116 MTAP-deleted cell lines; assay: Cell viability assay (CellTiter-Glo, 7 days), HCT116 MTAP-deleted; format: cell-based; conditions: Homo sapiens, HCT-116
How it was run: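 Each PRMT5 inhibitor was tested as a dose response alongside tool compounds on the same plate. Incubation ran 7 days at 37 °C under 5% CO2, after which CellTiter-Glo luminescence was recorded and CC50 calculated.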

[3] = HCT116 WT versus HCT116 MTAP-deleted
[4] = cell viability, HCT116 MTAP-deleted, class symbols, read-out: CC50
[5] = HCT116 WT vs HCT116 MTAP-deleted
[6] = cell viability assay, HCT116 MTAP-deleted, class symbols, read-out: CC50

SMILES	EC50 selectivity [1, 3]	EC50 [1] [nM]	EC50 selectivity [1, 5]	CC50 [2, 4] [nM]	CC50 [2, 6] [nM]	CC50 [2] [nM]
Nc1nc2cc(F)c(C(=O)N(Cc3ccc(Cl)cc3F)C34CC(C3)C4)cc2n2cncc12 [Ff-6, 4-amino-N-(bicyclo[1.1.1]pentan-1-yl)-N-(4-chloro-2-fluorobenzyl)-7-fluoroimidazo[1,5-a]quinoxaline-8-carboxamide]	71	> 5		100 to 1000		
CN(Cc1ccc(-c2cnn(C(F)(F)F)c2)cc1F)C(=O)c1cc2c(cc1F)nc(N)c1cncn12 [Ff-24, 4-amino-7-fluoro-N-(2-fluoro-4-(1-(trifluoromethyl)-1H-pyrazol-4-yl)benzyl)-N-methylimidazo[1,5-a]quinoxaline-8-carboxamide]	1985	1 to 5		100 to 1000		
CN(C(=O)c1cc2c(cc1Cl)nc(N)c1cncn12)[C@@H]1COc2cc(C(F)(F)F)ccc21 [Ff-10, (S)-4-amino-7-chloro-N-methyl-N-(6-(trifluoromethyl)-2,3-dihydrobenzofuran-3-yl)imidazo[1,5-a]quinoxaline-8-carboxamide]	88	≤ 1				< 100
Nc1nc2ccc(C(=O)N(Cc3ccc(C(F)(F)F)cn3)N3CCCC3=O)cc2n2cncc12 [Fd-1, 4-amino-N-(2-oxopyrrolidin-1-yl)-N-((5-(trifluoromethyl)pyridin-2-yl)methyl)imidazo[1,5-a]quinoxaline-8-carboxamide]	54	1 to 5		100 to 1000		
COC(C)(C)C#Cc1ccc2c(c1)OC[C@H]2N(C)C(=O)c1ccc2nc(N)c3cnc(C)n3c2c1 [Ff-18, (S)-4-amino-N-(6-(3-methoxy-3-methylbut-1-yn-1-yl)-2,3-dihydrobenzofuran-3-yl)-N,1-dimethylimidazo[1,5-a]quinoxaline-8-carboxamide]	447	> 5		100 to 1000		
CC(=O)N(C)N(Cc1ccc(Cl)cc1C#N)C(=O)c1ccc2nc(N)c3c(C)ncn3c2c1 [Fa-6, N′-acetyl-4-amino-N-(4-chloro-2-cyanobenzyl)-N′,3-dimethylimidazo[1,5-a]quinoxaline-8-carbohydrazide]	129	1 to 5		< 100		
CN(C(=O)c1cc2c(cc1F)nc(N)c1cncn12)[C@@H]1COc2cc(C(C)(F)F)ccc21 [Ff-337, (S)-4-amino-N-(6-(1,1-difluoroethyl)-2,3-dihydrobenzofuran-3-yl)-7-fluoro-N-methylimidazo[1,5-a]quinoxaline-8-carboxamide]				< 100		
Cc1ncn2c1c(N)nc1cc(F)c(C(=O)N3CC(C)(C)C[C@@H]4Oc5nc(C(F)(F)F)ccc5[C@@H]43)cc12 (racemic) [Ff-385, Rac-(4-amino-7-fluoro-3-methylimidazo[1,5-a]quinoxalin-8-yl)((4aS,9bS)-3,3-dimethyl-7-(trifluoromethyl)-3,4,4a,9b-tetrahydrofuro[2,3-b:4,5-b′]dipyridin-1(2H)-yl)methanone]					< 100	
Cc1ncn2c1c(N)nc1cnc(C(=O)N3CCC[C@@H]4Oc5cc(-c6cnn(C(F)(F)F)c6)ccc5[C@@H]43)cc12 [Ff-683, (4-amino-3-methylimidazo[1,5-a]pyrido[3,4-e]pyrazin-8-yl)((4aS,9bS)-7-(1-(trifluoromethyl)-1H-pyrazol-4-yl)-3,4,4a,9b-tetrahydrobenzofuro[3,2-b]pyridin-1(2H)-yl)methanone]					< 100	
Cc1ncc2c(N)nc3cc(F)c(C(=O)N(C)[C@@H]4CCc5nc(C(F)(F)F)ccc54)cc3n12 [Ff-317, (R)-4-amino-7-fluoro-N,1-dimethyl-N-(2-(trifluoromethyl)-6,7-dihydro-5H-cyclopenta[b]pyridin-5-yl)imidazo[1,5-a]quinoxaline-8-carboxamide]				100 to 1000		
Nc1nc2cc(F)c(C(=O)N3CCC[C@@H]4Oc5cc(F)ccc5[C@@H]43)cc2n2cncc12 [Fg-25, (4-amino-7-fluoroimidazo[1,5-a]quinoxalin-8-yl)((4aS,9bS)-7-fluoro-3,4,4a,9b-tetrahydrobenzofuro[3,2-b]pyridin-1(2H)-yl)methanone]					< 100	

The next lines start with results.

EC50 selectivity [1, 3]	EC50 [1] [nM]	EC50 selectivity [1, 5]	SMILES	CC50 [2, 4] [nM]	CC50 [2, 6] [nM]	CC50 [2] [nM]
166	1 to 5		CN(C(=O)c1cc2c(cc1F)nc(N)c1cncn12)[C@@H]1CC2(CC2)c2cc(C(F)(F)F)ccc21 [Ff-58, (R)-4-amino-7-fluoro-N-methyl-N-(6′-(trifluoromethyl)-2′,3′-dihydrospiro[cyclopropane-1,1′-inden]-3′-yl)imidazo[1,5-a]quinoxaline-8-carboxamide]	< 100		
	> 5	315	Nc1nc2cnc(C(=O)N3CCC[C@@H]4Oc5cc(C(F)(F)F)ccc5[C@@H]43)cc2n2c(F)ncc12 (single isomer, unassigned) [Ff-625]		100 to 1000	
	1 to 5	124	Cc1ncn2c1c(N)nc1cnc(C(=O)N3C[C@@H](F)C[C@@H]4Oc5cc(C(F)(F)F)ccc5[C@@H]43)cc12 [Ff-658, (4-amino-3-methylimidazo[1,5-a]pyrido[3,4-e]pyrazin-8-yl)((3S,4aS,9bS)-3-fluoro-7-(trifluoromethyl)-3,4,4a,9b-tetrahydrobenzofuro[3,2-b]pyridin-1(2H)-yl)methanone]		< 100	
	≤ 1	182	[2H]C1([2H])C[C@H]2C[C@H](c3ccc(C(F)(F)F)cc3O2)N1C(=O)c1cc2c(cc1F)nc(N)c1cncn12 [Ff-637, (4-amino-7-fluoroimidazo[1,5-a]quinoxalin-8-yl)((2S,6R)-9-(trifluoromethyl)-3,4-dihydro-2H-2,6-methanobenzo[b][1,5]oxazocin-5(6H)-yl-4,4-d2)methanone]		< 100	
106	≤ 1		CCN(C(=O)c1cc2c(cc1F)nc(N)c1cncn12)[C@@H]1COc2cc(C(F)(F)F)ccc21 [Ff-9, (S)-4-amino-N-ethyl-7-fluoro-N-(6-(trifluoromethyl)-2,3-dihydrobenzofuran-3-yl)imidazo[1,5-a]quinoxaline-8-carboxamide]	< 100		
	1 to 5	112	Cc1ncn2c1c(N)nc1cnc(C(=O)N(C)[C@@H]3COc4cc(C(F)(F)F)ccc43)cc12 [Ff-502, (S)-4-amino-N,3-dimethyl-N-(6-(trifluoromethyl)-2,3-dihydrobenzofuran-3-yl)imidazo[1,5-a]pyrido[3,4-e]pyrazine-8-carboxamide]		< 100	
	≤ 1	47	C[C@H]1C[C@@H]2Oc3cc(C(F)(F)F)ccc3[C@@H]2N(C(=O)c2cc3c(cn2)nc(N)c2cncn23)C1 (single isomer, unassigned) [Ff-399]		< 100	
	≤ 1	92	[2H]C1([2H])CC[C@@H]2Oc3cc(C(F)(F)F)ccc3[C@@H]2N1C(=O)c1cc2c(cn1)nc(N)c1c(C)ncn12 [Ff-644, (4-amino-3-methylimidazo[1,5-a]pyrido[3,4-e]pyrazin-8-yl)((4aS,9bS)-7-(trifluoromethyl)-3,4,4a,9b-tetrahydrobenzofuro[3,2-b]pyridin-1(2H)-yl-2,2-d2)methanone]		< 100	
